Experimental data published in patent publication US20230372337A1, “Combination Therapy Comprising an AXL Inhibitor” (BERGENBIO ASA, priority 2020, published 2023).
Where “and” joins values, the source holds several entries; their conditions need not be identical. Equal entries are not always repeated.

Experiments:
[1] = tested on: 4T1 mammary carcinoma cells; assay: Metastasis, tumor weight and spleen weight post sacrifice, 4T1 model (Example 1); assay type: in vivo, BALB/c mice; settings: for Lung macro metastasis: count per animal (A1-A15) after sacrifice, 10+ = massive lung metastasis; for Average spleen weight / Average tumor weight: post sacrifice, average of each group
Procedure: Spleens were weighed and inspected for macroscopic metastasis and cut in half along the long axis. Half of the spleen was snap frozen, with the other half fixed in 4% formalin for 24 hours at room temperature and stored in 70% ethanol at 4° C. until embedding in paraffin.
Livers were inspected for macroscopic metastasis and fixed in 4% formalin for 24 hours at room temperature and stored in 70% ethanol at 4° C. until embedding in paraffin.
Lungs were inspected for macroscopic metastasis and fixed in 4% formalin for 24 hours at room temperature and stored in 70% ethanol at 4° C. until embedding in paraffin.
Tumors were weighed and cut in half along the long axis, one half was snap frozen in liquid nitrogen in 2 cryotubes per tumor, while the other half was fixed in 4% formalin for 24 hours at room temperature and stored in 70% ethanol at 4° C. until embedding in paraffin.

[2] = tested on: Type I IFN related genes; assay: RT2 Profiler PCR Array Mouse Type I Interferon Response on 4T1 tumors (Example 1 mechanistic study); assay type: in vivo, BALB/c mice; settings: 4T1 tumors day 19; one animal per group compared to one of the controls
Procedure: RNA was extracted from snap frozen tumors using the RNEasy Microarray Tissue Mini kit from Qiagen following the manufacturer's instructions. As tumors contained Doxorubicin and powderizing them could expose personnel to harmful substances, the RNA was extracted in a closed system using the GentleMACS dissociator and M Tubes. Purity and concentration of RNA was measured using Nanodrop. cDNA was synthesized from RNA using the RT2 First Strand kit (Qiagen) according to the manufacturer's instructions. cDNA was mixed with RT2 SYBR Green Mastermix (Qiagen) and loaded into RT^2 Profiler™ PCR Array Mouse Type I Interferon Response, to analyze the expression of the 84 genes listed in Table 2. The plates were analysed using a Light Cycler 480 (Roche) and data were analysed using the Qiagen Data Analysis Centre and Graph Pad (Prism).
16 animals were used in the mechanistic study and were sacrificed day 19 post implantation, 3 days after Doxorubicin injection. […] The 4 animals from group A (no treatment) were used as controls. The fold changes of 4 animals of group B (Bemcentinib), group F (Doxorubicin) and group H (Bemcentinib+Doxorubicin) are expressed as compared to the control animals (group A).

[3] = tested on: EMT related genes; assay: RT2 Profiler PCR Array Mouse Epithelial to Mesenchymal Transition (EMT) on 4T1 tumors (Example 2); assay type: in vivo, Balb/c mice; settings: for Downregulated EMT genes (number): doxorubicin 1 mg/kg i.t., 72 hr timepoint; for EMT related genes significantly downregulated (number): doxorubicin 3 mg/kg i.t., 72 hours
Procedure: RNA was extracted from […] snap frozen tumors using the RNEasy Microarray Tissue Mini kit from Qiagen following the manufacturer's instructions. As tumors contained Doxorubicin and powderizing them could expose personnel to harmful substances, the RNA was extracted in a closed system using the GentleMACS dissociator and M Tubes. Purity and concentration of RNA was measured using Nanodrop. cDNA was synthesized from RNA using the RT^2 First Strand kit (Qiagen) according to the manufacturer's instructions. cDNA was mixed with RT^2 SYBR Green Mastermix (Qiagen) and loaded into RT Profiler™ PCR Array Mouse Type I Interferon Response or RT^2 Profiler™ PCR Array Mouse Epithelial to Mesenchymal Transition (EMT), analyzing the expression of 84 genes listed in Tables 9 and 10. The plates were analyzed using Light Cycler 480 (Roche) and data were analyzed using the Qiagen Data Analysis Centre and Graph Pad (Prism).
Quiagen RT^2 software was used to analyze all the samples from different groups. To be able to generate heatmaps and graph on fold change including error bars, the data have been analyzed manually with Graph Pad (Prism) when the Quiagen RT^2 software gave significant results between the different groups. For IFN type 1 response 1 mg/kg 48, 72 h and 3 mg/kg 48 h, were analyzed manually. For EMT, 1 mg/kg 48, 72 h, 3 mg/kg 72 h. When the data have been analyzed manually, the results are presented as histograms of mRNA fold changes. For the time points and doses analyzed by the software, the results are presented as tables.
EMT related gene expression in tumors was assessed by the RT^2 Profiler™ PCR Array for the 1 and 3 mg/kg doses at 48 and 72 hr timepoints. The highest dose and 24 hr timepoint samples were excluded based on the results outlined above.

[4] = tested on: global gene expression; assay: RNA sequencing of 4T1 tumors 72 hours after doxorubicin i.t. (Example 2); assay type: in vivo, Balb/c mice
Procedure: FASTQ files were generated and quality controlled by the Genomic Core Facility. The trimmed samples were aligned to the reference genome using STAR. Gene expression quantification was achieved using feature Counts. Following QC, 8 and 7 samples from in vitro and in vivo studies respectively were identified as outliers and were excluded from subsequent analysis. RUVseq was used to remove hidden batch effect and/or other unwanted variations.
Read counts were analyzed for differential expression using the R package DESeq2. DESeq2 uses the raw read counts, applies an internal normalization method, and does estimation of library size, estimation of dispersion, and negative binomial generalized linear model fitting. The resulting differentially expressed gene lists (adjusted p-value cutoff=0.05) were then analyzed using Metascape to find the enriched terms.
RNA sequence analysis (RNAseq) was performed on tumor samples from mice sacrificed 72 hours after doxorubicin i.t. treatment (corresponding to group E and F at the 72 hr timepoint in Example 1).

[5] = tested on: IFN related genes (ISG); assay: qRTPCR of IFN related genes in Yumm1.7 tumors after sacrifice (Example 3); assay type: in vivo, C57Bl6 mice; settings: 35 IFN related genes tested
Procedure: RNA was extracted from snap frozen tumors using the RNEasy Microarray Tissue Mini kit from Qiagen following the manufacturer's instructions. As tumors contained Doxorubicin and powderizing them could expose personnel to harmful substances, the RNA was extracted in a closed system using the GentleMACS dissociator and M Tubes. Purity and concentration of RNA was measured using Nanodrop. cDNA was synthesized from RNA using the RT^2 First Strand kit (Qiagen) according to the manufacturer's instructions. cDNA was mixed with SYBR Green Mastermix (Qiagen) and loaded into PCR plates with different probes against interferon related genes (listed in table 14). The plates were analyzed using Light Cycler 480 (Roche) and data were analyzed using Graph Pad (Prism).
Tumors from 4 animals treated either with Vehicle (group A), bemcentinib (Group B), Doxorubicin (group F) or bemcentinib+Doxorubicin (group H) were analyzed. Data are presented as fold changes compared to Vehicle treated mice. 35 IFN related genes (Table 14) were tested by RT PCR. Fold change was obtained compared to the control group (A). […]
A molecular mechanism focused study will be performed later; here samples were collected after sacrifice, meaning many days after treatment for some of the groups. The expression of 35 ISG as well, immune checkpoint related genes EMT related genes, Axl and Gas6 were analyzed by qRTPCR (Table 14).

Compound | Lung macro metastasis ([1]; listed as Bem + PBS + Igg) | Average spleen weight [1] [g] | Average tumor weight [1] [g] | Expression of IFN type I related genes [2] | Downregulated EMT genes (number) [3] | EMT related genes significantly downregulated (number) [3] | GO terms significantly downregulated compared to control (number) [4] | GO terms significantly upregulated compared to control (number) [4] | Interferon response (gene ontology) compared to control [4] | ISG significantly upregulated compared to control (number) [5] | Lung macro metastasis ([1]; listed as Vehicle + Dox + Igg) | Interferon and immune response (gene ontology) compared to bern only group [4]
Nc1nc(Nc2ccc3c(c2)CC[C@@H](N2CCCC2)CC3)nn1-c1cc2c(nn1)-c1ccccc1CCC2 [Bemcentinib, bemcentinib] | 6 and 10+ (2×) and 5 (3×) and 0 and 4 and 2 and 10 | 0.9333 | 1.556 | only a few upregulated genes | one | none | 20 | 2 | downregulated | 4 | – | –
COc1cccc2c1C(=O)c1c(O)c3c(c(O)c1C2=O)C[C@@](O)(C(=O)CO)C[C@@H]3O[C@H]1C[C@H](N)[C@H](O)[C@H](C)O1 [Doxorubicin, doxorubicin] | – | 1.16 | 1.51 | increase of expression | one | none | – | 1 | No Interferon response | No gene | 10+ (2×) and 6 and 3 and 0 (2×) and 4 (2×) and 5 | upregulated
